Data set [1] is described as follows: Pharmacokinetic evaluation in mice. It counts as in vivo. The note with it: CD-1 mice; for bioavailability: female, mouse, plasma, PO 10 mg/kg vs IV 1 mg/kg. Here is the method: Six female CD-1 mice (20-30 g, 4-6 weeks) were randomized into 2 groups, 3 mice/group. Group 1 was given the test compound via tail vein injection at a dose of 1 mg/kg, and the vehicle was 5% DMSO in 10% HP-β-CD in water, and group 2 was given the test compound orally at a dose of 10 mg/kg, and the vehicle was 40% Tetraethylene Glycol (v/v), 7.5% Captisol (w/v) in water. Prior to the experiment, the animals were given food and water as usual. Before administration and 0.083 (only for the vein injection group), 0.25, 0.5, 1, 2, 4, 6, 8 and 24 h after administration, blood was sampled from the veins of the mice in each group. The whole blood sample collected was placed in a K2EDTA anticoagulation tube and centrifuged for 5 min (12,000 rpm, 4° C.) and then the plasma was taken for later detection.
10 µL of the mouse plasma sample was taken and 150 µL of acetonitrile solvent (wherein internal standard compound was contained) was added to precipitate proteins. After the mixture was vortexed for 5 min, centrifugation (14,000 rpm) was performed for 5 min. The supernatant was diluted 2-fold with water containing 0.1% (v/v) FA and injected into the LC-MS/MS system (AB Sciex Triple Quad 6500+) for the quantitative detection. A calibration standard curve was prepared in CD-1 mouse plasma along with quality control samples to determine the plasma concentration. For the 10x diluted samples, 2 µL of the sample was taken and 18 µL of blank plasma was added. After the mixture was vortexed for 0.5 min, 300 µL of acetonitrile solvent (wherein an internal standard compound was contained) was added to precipitate proteins. The other processing steps were identical to those for the samples not diluted.

The test system of another data set is MCF7 cells. Put plainly: Inhibition of the proliferation of MCF7 cells (CellTiter-Glo). The note with it: Homo sapiens, MCF7, 168 h; 7 days treatment; read-out: MCF-7 cell proliferation inhibition IC50. It counts as cell-based. On the procedure: The purpose of the experiment is to determine the inhibitory effect of the compounds of the present invention on the proliferation of MCF7 cells in vitro, and to evaluate the activity of the compounds according to IC50 and maximum inhibitory efficiency.
MCF7 cells (ATCC, HTB-22) were cultured in DMEM (Gibco, 11995-065) complete medium containing 10% fetal bovine serum. On the first day of the experiment, MCF7 cells were inoculated in a 384-well plate at a density of 500 cells/well using the complete medium, and cultured in a 37° C., 5% CO2 cell incubator overnight. The next day, the compounds to be tested were added for drug treatment, and the compound solution with a stock concentration of 10 mM was diluted with Echo550 (Labcyte Inc.) and transferred to each cell culture well. Each compound with the starting concentration for treatment of 100 nM in cells was subjected to 3-fold gradient dilution with 9 concentration points. A blank control containing 0.3% DMSO was set, and double replicate wells as controls were set at each concentration point. The culture was cultured in a 37° C., 5% CO2 cell incubator for 7 days, and the cell culture plate was taken out on day 8.

For data set [2], the target named is voltage-gated potassium ion channel hERG (Homo sapiens (Human), UniProt Q12809). Put plainly: hERG manual patch clamp in HEK293 cells. The note with it: HEK293 cells stably expressing hERG. It counts as cell-based. On the procedure: HEK293 cell line stably expressing hERG ion channel (Cat. No. K1236) was purchased from Invitrogen. The cell line was cultured in the medium containing 85% DMEM, 10% dialysis fetal bovine serum, 0.1 mM non-essential amino acid solution, 100 U/mL penicillin-streptomycin solution, 25 mM HEPES, 5 µg/mL blasticidin and 400 µg/mL geneticin. When the cell density increased to 40%-80% of the bottom area of the culture dish, trypsin was used for digestion and passage, and the cells were passaged three times weekly. Before the experiment, the cells were cultured in a 6 cm culture dish at a density of 5 × 10^5 and induced by adding 1 µg/mL doxycycline for 48 hours, and then the cells were digested and inoculated on glass slides for subsequent manual patch clamp experiments.
1) According to the SOP-ADMET-MAN-007 standard operating procedure, the compounds to be tested were dissolved with DMSO and prepared into the stock solution with a final concentration of 10 mM. […]
10. Determination of the inhibitory effect of the compounds to be tested on hERG current: First, the hERG current measured in extracellular fluid containing 0.1% DMSO was used as the detection baseline. […] By waiting for about 5 minutes after the completion of each perfusion, the compound was allowed to fully act on the cells, and the hERG currents were simultaneously recorded. After the currents to be recorded became stable, the last 5 hERG current values were recorded, and the average value thereof was taken as the final current value thereof at a specific concentration. […] In addition, the positive compound dofelide was detected with the same patch clamp system both before and after the completion of the test compound experiment to ensure the reliability and sensitivity of the entire detection system.
1) After perfusion of blank solvent or compound gradient solution, the average value of 5 continuous current values obtained in a stable state is calculated as “tail current valueblank” and “tail current valuecompound”, respectively.
2) The percent current inhibition was calculated by the following formula. […]

The results in this text go back to patent publication US20230348459A1, “PYRROLIDINE COMPOUND AND USE THEREOF” (SIMCERE PHARMACEUTICAL CO., LTD., priority 2020, published 2023).

voltage-gated potassium ion channel hERG, sequence (Q12809 whole entry): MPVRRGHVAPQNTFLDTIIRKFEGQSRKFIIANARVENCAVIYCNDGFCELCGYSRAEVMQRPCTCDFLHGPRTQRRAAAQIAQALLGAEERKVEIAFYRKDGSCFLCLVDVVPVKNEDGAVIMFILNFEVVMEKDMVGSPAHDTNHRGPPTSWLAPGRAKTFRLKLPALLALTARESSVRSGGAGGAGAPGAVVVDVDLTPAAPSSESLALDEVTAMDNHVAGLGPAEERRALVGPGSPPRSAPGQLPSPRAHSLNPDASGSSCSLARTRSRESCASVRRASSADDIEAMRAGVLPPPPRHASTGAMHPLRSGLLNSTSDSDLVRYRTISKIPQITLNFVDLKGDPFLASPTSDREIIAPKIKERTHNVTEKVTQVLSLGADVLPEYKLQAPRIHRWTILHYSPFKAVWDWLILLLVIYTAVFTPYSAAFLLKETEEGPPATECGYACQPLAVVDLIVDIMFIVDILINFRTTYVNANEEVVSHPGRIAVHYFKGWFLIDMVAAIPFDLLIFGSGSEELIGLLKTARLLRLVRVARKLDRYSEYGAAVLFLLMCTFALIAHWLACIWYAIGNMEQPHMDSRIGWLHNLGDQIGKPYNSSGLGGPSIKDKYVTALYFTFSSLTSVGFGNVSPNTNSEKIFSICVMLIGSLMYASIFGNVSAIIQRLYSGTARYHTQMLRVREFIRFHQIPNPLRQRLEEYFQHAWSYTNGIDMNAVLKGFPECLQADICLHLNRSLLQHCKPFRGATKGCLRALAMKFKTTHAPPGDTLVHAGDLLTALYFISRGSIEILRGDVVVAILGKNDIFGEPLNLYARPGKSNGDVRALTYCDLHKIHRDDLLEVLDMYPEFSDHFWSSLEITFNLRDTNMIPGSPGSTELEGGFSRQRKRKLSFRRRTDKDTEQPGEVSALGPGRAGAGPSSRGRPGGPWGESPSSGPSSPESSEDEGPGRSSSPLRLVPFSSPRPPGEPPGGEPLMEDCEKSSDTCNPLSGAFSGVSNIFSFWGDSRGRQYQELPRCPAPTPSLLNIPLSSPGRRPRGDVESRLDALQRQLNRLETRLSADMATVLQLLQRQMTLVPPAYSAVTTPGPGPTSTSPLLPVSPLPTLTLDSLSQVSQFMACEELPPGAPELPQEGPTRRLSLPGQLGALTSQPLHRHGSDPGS

As to `C[C@@H]1Cc2c([nH]c3ccccc23)C(c2c(F)cc(N[C@H]3CCN(CCCF)C3)cc2F)N1CC(F)(F)F` (stereo in doubt) [Example 4, (S)-N-(3,5-difluoro-4-((1S,3R)-3-methyl-2-(2,2,2-trifluoroethyl)-2,3,4,9-tetrahydro-1H-pyridino[3,4-b]indol-1-yl)phenyl)-1-(3-fluoropropyl)pyrrolidin-3-amine], in data set [1] (IV 1 mg/kg), the Drug exposure was 639 ng·h/mL, the Maximum drug concentration stood at 78 ng/mL and the “Time of half drug elimination” value came to 21 h. Further, in data set [1] (PO 10 mg/kg), the Drug exposure turned out to be 3853 ng·h/mL, the Maximum drug concentration was 222 ng/mL, the “Time of half drug elimination” value is recorded as 19 h and the “Time to peak drug concentration” value stood at 5 h. The molecule also returned a bioavailability in data set [1] of 60%. Moreover, the IC50 in the data set with MCF7 cells turned out to be 0.23 nM. In addition, the IC50 in data set [2] was 3700 nM.
With `C[C@@H]1Cc2c([nH]c3ccccc23)C(c2c(F)cc(N[C@H]3CCN(CCCF)C3)cc2F)N1CC(F)(F)CO` (stereo in doubt) [Example 7, 3-((1S,3R)-1-(2,6-difluoro-4-(((S)-1-(3-fluoropropyl)pyrrolidin-3-yl)amino)phenyl)-3-methyl-3,4-dihydro-1H-pyridino [3,4-b]indole-2(9H)-yl)-2,2-difluoropropane-1-ol], in data set [1] (IV 1 mg/kg), the Drug exposure is 879 ng·h/mL, the Maximum drug concentration turned out to be 259 ng/mL and the “Time of half drug elimination” value is listed as 5 h. Further, in data set [1] (PO 10 mg/kg), the Drug exposure came to 5447 ng·h/mL, the Maximum drug concentration was found to be 555 ng/mL, the “Time of half drug elimination” value was determined as 4 h and the “Time to peak drug concentration” value is 1 h. The molecule also yielded a bioavailability in data set [1] of 62%. Besides, in the data set on MCF7 cells, the IC50 is 0.12 nM. In data set [2], the IC50 came to 8400 nM.
Take `C[C@@H]1Cc2c([nH]c3ccccc23)[C@@H](c2ccc(N[C@H]3CCN(CCCF)C3)cn2)N1CC(F)(F)F` [Example 3, N-((S)-1-(3-fluoropropyl)pyrrolidin-3-yl)-6-((1S,3R)-3-methyl-2-(2,2,2-trifluoroethyl)-2,3,4,9-tetrahydro-1H-pyridino[3,4-b]indol-1-yl)pyridine-3-amine]: in data set [1] (IV 1 mg/kg), the Drug exposure is 414 ng·h/mL, the Maximum drug concentration turned out to be 98 ng/mL and the “Time of half drug elimination” value is on record as 13 h. In data set [1] (PO 10 mg/kg), the Drug exposure is 2804 ng·h/mL, the Maximum drug concentration amounted to 219 ng/mL, the “Time of half drug elimination” value amounted to 9 h and the “Time to peak drug concentration” value was found to be 3 h. For the same molecule, the bioavailability in data set [1] turned out to be 68%. The IC50 in the data set on MCF7 cells was found to be 0.27 nM. Further, the IC50 in data set [2] worked out at 10000 nM.
